From patent US5763460A, “N-(piperidinyl-1-alkyl)-substituted cyclohexane carboxylic acid amides as 5-htia receptor antagonists” (John Wyeth & Brother Limited, priority 1993, dated 1998)

Columns and labels:
5-HT1A receptor [1] = molecular target: T1, 5-HT1A receptor (Cavia porcellus, UniProt A0A286Y074); assay: 5-HT1A receptor antagonism: antagonism of 5-carboxamidotryptamine in the guinea-pig ileum in vitro
T1 construct: guinea-pig ileum in vitro; from tissue; host or cells: guinea-pig ileum
T1 sequence (A0A286Y074 1-421): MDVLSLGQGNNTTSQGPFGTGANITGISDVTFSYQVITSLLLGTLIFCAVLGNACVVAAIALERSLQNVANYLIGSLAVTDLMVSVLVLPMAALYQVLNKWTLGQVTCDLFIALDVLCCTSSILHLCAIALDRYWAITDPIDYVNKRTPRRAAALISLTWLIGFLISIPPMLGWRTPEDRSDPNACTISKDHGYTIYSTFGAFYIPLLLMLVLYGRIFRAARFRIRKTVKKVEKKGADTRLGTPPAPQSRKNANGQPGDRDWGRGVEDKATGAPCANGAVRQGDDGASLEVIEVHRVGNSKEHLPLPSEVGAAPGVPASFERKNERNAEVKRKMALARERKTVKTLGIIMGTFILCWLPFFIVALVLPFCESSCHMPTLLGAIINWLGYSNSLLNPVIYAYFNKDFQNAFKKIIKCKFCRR
Description: The compounds are tested for 5-HT1A receptor antagonism activity in a test involving the antagonism of 5-carboxamidotryptamine in the guinea-pig ileum in vitro (based upon the procedure of Fozard et al, Br J Pharmac, 1985, 86, 601 P).

α1 site = assay: affinity for the α1 site; assay type: binding; details: procedure of A. L. Marrow et al
5-HT1A receptor [2] = molecular target: T2, 5-HT1A receptor (Rattus norvegicus, UniProt P19327); assay: 5-HT1A receptor binding activity in rat hippocampal membrane homogenate; details: method of Alexander and Wood
T2 construct: rat hippocampal membrane homogenate; from tissue; host or cells: rat hippocampal membrane homogenate
T2 sequence (P19327 1-422): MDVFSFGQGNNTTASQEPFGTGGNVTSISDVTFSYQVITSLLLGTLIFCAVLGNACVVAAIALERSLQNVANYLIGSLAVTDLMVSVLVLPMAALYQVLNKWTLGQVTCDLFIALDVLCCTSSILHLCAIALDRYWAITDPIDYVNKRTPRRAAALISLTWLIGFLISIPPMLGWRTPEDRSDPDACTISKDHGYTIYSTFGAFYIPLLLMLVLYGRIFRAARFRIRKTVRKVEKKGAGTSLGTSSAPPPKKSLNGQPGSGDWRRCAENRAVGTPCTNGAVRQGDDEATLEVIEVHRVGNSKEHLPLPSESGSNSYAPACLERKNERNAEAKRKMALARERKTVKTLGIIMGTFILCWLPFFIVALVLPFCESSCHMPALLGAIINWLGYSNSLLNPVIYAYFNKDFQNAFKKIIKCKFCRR
Description: The compounds of the invention are tested for 5-HT1A receptor binding activity in rat hippocampal membrane homogenate by the method of B. S. Alexander and M. D. Wood, J Pharm Pharmacol. 1988, 40, 888-891.

COc1ccccc1C1CCN([C@H](C)CN(C(=O)C2CCCCC2)c2ccccn2)CC1 [Example 1, (R)-N-(2-(1-(4-(2-Methoxyphenyl)piperidinyl))propyl)-N-(2-pyridyl)cyclohexanecarboxamide]
pA2 (5-HT1A receptor [1]): 7.9
IC50 (α1 site): 858 nM
IC50 (5-HT1A receptor [2]): 3.5 nM
